In ChEMBL document CHEMBL4507317, “Data for DCP probe BAY-899” (2021):

How the values were obtained:
[1] = biological target: Serine/threonine-protein kinase haspin (Homo sapiens) (UniProt Q8TF76); details: Compound concentration 1000.0 nM
[2] = biological target: Serine/threonine-protein kinase 10 (Homo sapiens) (UniProt O94804); details: Compound concentration 1000.0 nM
[3] = biological target: Dual specificity protein kinase CLK1 (Homo sapiens) (UniProt P49759); details: Compound concentration 1000.0 nM
[4] = system: Leucine-rich repeat serine/threonine-protein kinase 2 (Homo sapiens), Q5S007 [G2019S]; details: Compound concentration 1000.0 nM
[5] = system: Tyrosine-protein kinase ABL1 (Homo sapiens), P00519 [Q252H]; details: Compound concentration 1000.0 nM
[6] = biological target: Ribosomal protein S6 kinase alpha-5 (Homo sapiens) (UniProt O75582); details: Compound concentration 1000.0 nM
[7] = biological target: Sodium-dependent noradrenaline transporter (Homo sapiens) (UniProt P23975); details: Compound concentration 10.0 uM
Sodium-dependent noradrenaline transporter (Homo sapiens), sequence (P23975 whole entry): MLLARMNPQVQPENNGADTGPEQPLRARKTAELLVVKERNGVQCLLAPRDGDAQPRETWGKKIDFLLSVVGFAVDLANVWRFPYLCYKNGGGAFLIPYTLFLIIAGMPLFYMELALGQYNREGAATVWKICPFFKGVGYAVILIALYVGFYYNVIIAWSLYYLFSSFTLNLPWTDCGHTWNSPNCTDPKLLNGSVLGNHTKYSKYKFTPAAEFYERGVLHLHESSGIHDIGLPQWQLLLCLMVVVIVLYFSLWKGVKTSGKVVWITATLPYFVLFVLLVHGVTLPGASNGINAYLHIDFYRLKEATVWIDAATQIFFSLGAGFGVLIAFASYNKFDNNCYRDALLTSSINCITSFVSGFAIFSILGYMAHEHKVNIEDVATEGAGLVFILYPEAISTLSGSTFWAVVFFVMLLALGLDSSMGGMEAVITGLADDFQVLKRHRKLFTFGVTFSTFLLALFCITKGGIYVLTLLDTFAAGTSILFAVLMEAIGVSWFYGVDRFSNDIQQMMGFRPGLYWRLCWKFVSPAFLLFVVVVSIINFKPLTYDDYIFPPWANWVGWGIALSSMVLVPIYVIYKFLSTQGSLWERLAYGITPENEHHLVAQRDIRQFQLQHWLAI

[8] = biological target: D(2) dopamine receptor (Homo sapiens) (UniProt P14416); details: Compound concentration 10.0 uM
D(2) dopamine receptor (Homo sapiens), sequence (P14416 whole entry): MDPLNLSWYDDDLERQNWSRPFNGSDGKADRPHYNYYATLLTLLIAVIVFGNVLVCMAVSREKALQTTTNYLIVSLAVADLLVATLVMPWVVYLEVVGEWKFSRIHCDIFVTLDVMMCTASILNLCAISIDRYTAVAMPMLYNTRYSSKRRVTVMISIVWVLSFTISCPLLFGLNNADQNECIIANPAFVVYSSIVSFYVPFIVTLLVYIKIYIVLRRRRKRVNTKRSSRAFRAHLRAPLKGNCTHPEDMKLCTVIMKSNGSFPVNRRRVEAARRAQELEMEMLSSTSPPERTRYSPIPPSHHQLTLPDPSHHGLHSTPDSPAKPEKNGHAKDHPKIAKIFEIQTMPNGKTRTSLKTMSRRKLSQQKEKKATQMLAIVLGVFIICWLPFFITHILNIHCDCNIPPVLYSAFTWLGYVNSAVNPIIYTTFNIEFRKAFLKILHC

[9] = biological target: Tyrosine-protein kinase Lck (Homo sapiens) (UniProt P06239); details: Compound concentration 1000.0 nM
[10] = biological target: Alpha-2C adrenergic receptor (Homo sapiens) (UniProt P18825); details: Compound concentration 10.0 uM
Alpha-2C adrenergic receptor (Homo sapiens), sequence (P18825 whole entry): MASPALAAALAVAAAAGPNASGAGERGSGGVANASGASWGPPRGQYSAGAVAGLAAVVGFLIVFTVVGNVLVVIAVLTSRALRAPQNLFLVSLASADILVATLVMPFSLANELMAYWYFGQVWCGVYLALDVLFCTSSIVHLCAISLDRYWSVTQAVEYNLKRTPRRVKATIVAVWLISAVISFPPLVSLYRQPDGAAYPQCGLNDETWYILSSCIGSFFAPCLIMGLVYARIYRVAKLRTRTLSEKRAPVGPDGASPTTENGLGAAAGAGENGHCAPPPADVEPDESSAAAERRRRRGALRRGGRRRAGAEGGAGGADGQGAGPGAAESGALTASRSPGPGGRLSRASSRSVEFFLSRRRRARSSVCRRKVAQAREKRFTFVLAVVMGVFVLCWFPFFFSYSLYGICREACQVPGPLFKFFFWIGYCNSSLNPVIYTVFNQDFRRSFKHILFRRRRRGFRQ

[11] = system: Proto-oncogene tyrosine-protein kinase receptor Ret (Homo sapiens), P07949 [V804M]; details: Compound concentration 1000.0 nM
[12] = biological target: Cyclin-dependent kinase 14 (Homo sapiens) (UniProt O94921); details: Compound concentration 1000.0 nM
[13] = biological target: Ribosomal protein S6 kinase alpha-4 (Homo sapiens) (UniProt O75676); details: Compound concentration 1000.0 nM
[14] = biological target: Ephrin type-A receptor 7 (Homo sapiens) (UniProt Q15375); details: Compound concentration 1000.0 nM
[15] = biological target: Calcium/calmodulin-dependent protein kinase type II subunit gamma (Homo sapiens) (UniProt Q13555); details: Compound concentration 1000.0 nM
Calcium/calmodulin-dependent protein kinase type II subunit gamma (Homo sapiens), sequence (Q13555 whole entry): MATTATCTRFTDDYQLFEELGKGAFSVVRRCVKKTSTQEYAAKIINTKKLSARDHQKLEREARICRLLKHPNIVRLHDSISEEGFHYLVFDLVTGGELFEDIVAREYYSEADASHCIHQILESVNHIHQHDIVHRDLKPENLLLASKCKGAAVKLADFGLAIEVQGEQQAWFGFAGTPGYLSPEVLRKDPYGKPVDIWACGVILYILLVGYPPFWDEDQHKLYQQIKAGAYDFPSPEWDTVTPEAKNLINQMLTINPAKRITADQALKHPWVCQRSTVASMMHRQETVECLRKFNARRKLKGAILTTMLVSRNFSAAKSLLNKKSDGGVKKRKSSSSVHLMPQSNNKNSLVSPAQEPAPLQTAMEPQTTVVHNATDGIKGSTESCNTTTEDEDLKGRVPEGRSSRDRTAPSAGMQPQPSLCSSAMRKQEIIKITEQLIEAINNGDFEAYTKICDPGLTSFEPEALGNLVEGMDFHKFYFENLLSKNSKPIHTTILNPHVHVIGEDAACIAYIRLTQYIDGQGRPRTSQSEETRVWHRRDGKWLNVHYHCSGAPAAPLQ

[16] = biological target: Cyclin-dependent kinase 19 (Homo sapiens) (UniProt Q9BWU1); details: Compound concentration 1000.0 nM
[17] = biological target: Myotonin-protein kinase (Homo sapiens) (UniProt Q09013); details: Compound concentration 1000.0 nM
Myotonin-protein kinase (Homo sapiens), sequence (Q09013 whole entry): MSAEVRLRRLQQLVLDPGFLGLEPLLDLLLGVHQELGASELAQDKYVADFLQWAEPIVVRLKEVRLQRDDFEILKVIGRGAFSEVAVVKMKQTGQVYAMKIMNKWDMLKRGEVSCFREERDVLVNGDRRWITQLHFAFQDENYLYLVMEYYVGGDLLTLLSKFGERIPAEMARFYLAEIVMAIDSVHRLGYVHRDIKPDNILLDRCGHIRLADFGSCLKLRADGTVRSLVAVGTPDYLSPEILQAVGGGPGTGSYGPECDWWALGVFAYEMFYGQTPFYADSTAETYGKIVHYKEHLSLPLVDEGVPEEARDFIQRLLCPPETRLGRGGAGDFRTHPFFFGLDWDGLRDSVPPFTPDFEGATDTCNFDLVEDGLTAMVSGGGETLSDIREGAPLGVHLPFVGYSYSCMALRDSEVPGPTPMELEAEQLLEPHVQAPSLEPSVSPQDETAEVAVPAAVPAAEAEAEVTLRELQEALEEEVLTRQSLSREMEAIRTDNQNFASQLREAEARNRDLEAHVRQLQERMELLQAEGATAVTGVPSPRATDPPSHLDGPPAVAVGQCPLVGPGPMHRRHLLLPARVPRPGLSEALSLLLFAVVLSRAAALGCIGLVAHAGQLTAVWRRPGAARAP

[18] = biological target: Beta-2 adrenergic receptor (Homo sapiens) (UniProt P07550); details: Compound concentration 10.0 uM
Beta-2 adrenergic receptor (Homo sapiens), sequence (P07550 whole entry, looked up): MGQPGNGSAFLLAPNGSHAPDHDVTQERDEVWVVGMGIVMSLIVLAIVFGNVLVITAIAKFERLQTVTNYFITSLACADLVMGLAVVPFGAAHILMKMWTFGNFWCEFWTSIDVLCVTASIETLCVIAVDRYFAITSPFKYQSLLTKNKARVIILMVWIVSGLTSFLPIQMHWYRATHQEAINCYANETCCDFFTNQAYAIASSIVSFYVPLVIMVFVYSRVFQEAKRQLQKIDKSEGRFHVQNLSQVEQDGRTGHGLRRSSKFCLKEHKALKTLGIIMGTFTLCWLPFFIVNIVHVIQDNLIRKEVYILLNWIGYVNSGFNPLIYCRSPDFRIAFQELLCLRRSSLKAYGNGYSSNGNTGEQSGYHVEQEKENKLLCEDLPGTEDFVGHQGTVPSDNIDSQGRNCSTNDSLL

[19] = biological target: Tyrosine-protein kinase Srms (Homo sapiens) (UniProt Q9H3Y6); details: Compound concentration 1000.0 nM
Tyrosine-protein kinase Srms (Homo sapiens), sequence (Q9H3Y6 whole entry): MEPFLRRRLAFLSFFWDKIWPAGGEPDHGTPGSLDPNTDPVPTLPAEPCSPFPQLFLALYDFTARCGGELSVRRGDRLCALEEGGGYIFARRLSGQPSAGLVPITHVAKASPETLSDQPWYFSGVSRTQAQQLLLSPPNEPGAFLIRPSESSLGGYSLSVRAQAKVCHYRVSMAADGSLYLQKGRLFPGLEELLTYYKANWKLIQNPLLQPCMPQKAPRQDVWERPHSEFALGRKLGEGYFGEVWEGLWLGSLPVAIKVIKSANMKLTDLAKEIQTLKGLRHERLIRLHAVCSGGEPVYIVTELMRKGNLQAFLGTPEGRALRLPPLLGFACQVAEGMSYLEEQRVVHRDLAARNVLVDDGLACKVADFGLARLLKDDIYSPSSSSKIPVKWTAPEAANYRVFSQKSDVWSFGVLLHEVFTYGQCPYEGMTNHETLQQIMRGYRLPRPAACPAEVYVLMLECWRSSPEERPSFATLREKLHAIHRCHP

[20] = biological target: Histamine H3 receptor (Homo sapiens) (UniProt Q9Y5N1); details: Compound concentration 10.0 uM
[21] = biological target: Activated CDC42 kinase 1 (Homo sapiens) (UniProt Q07912); details: Compound concentration 1000.0 nM
[22] = system: Tyrosine-protein kinase ABL1 (Homo sapiens), P00519 [T315I]; details: Compound concentration 1000.0 nM
[23] = biological target: Cyclin-dependent kinase-like 3 (Homo sapiens) (UniProt Q8IVW4); details: Compound concentration 1000.0 nM
[24] = biological target: 3-phosphoinositide-dependent protein kinase 1 (Homo sapiens) (UniProt O15530); details: Compound concentration 1000.0 nM
3-phosphoinositide-dependent protein kinase 1 (Homo sapiens), sequence (O15530 whole entry): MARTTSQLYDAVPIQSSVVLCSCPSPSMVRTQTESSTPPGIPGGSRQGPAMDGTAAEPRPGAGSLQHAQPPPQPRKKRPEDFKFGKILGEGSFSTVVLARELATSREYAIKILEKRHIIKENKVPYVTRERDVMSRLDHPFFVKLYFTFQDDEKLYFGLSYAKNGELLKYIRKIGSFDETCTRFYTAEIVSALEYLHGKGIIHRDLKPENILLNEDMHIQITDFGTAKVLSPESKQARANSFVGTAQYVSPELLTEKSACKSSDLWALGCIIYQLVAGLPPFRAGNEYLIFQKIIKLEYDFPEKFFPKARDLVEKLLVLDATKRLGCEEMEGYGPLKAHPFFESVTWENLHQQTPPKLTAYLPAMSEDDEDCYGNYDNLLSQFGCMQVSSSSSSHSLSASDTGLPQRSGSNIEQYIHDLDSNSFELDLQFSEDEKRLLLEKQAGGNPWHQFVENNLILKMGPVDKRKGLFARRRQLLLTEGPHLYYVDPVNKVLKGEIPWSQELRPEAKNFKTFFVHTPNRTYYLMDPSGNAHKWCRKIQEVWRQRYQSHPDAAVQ

[25] = biological target: Ephrin type-A receptor 1 (Homo sapiens) (UniProt P21709); details: Compound concentration 1000.0 nM
[26] = biological target: Ribosomal protein S6 kinase alpha-2 (Homo sapiens) (UniProt Q15349); details: Compound concentration 1000.0 nM
Ribosomal protein S6 kinase alpha-2 (Homo sapiens), sequence (Q15349 whole entry): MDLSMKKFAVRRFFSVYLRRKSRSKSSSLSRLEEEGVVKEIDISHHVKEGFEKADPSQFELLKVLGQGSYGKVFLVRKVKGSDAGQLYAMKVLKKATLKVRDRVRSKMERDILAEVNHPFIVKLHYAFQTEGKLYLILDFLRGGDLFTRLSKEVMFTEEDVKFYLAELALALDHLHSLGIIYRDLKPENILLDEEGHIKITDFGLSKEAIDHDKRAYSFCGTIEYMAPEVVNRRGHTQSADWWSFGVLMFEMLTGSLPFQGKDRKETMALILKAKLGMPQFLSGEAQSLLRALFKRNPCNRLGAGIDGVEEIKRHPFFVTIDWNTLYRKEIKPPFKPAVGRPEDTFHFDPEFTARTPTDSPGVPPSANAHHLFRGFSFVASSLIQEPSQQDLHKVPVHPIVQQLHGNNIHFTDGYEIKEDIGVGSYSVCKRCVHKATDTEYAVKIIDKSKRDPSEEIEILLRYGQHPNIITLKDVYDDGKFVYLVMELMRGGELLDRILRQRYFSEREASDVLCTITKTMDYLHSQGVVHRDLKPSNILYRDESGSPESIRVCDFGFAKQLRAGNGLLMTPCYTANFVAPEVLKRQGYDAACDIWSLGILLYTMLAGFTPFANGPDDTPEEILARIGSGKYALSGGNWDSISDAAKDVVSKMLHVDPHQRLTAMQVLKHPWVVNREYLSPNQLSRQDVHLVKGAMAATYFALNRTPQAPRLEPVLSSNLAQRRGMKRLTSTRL

[27] = biological target: Mitogen-activated protein kinase 8 (Homo sapiens) (UniProt P45983); details: Compound concentration 1000.0 nM
[28] = biological target: Casein kinase I isoform gamma-3 (Homo sapiens) (UniProt Q9Y6M4); details: Compound concentration 1000.0 nM
[29] = system: ALK tyrosine kinase receptor (Homo sapiens), Q9UM73 [C1156Y]; details: Compound concentration 1000.0 nM
[30] = biological target: Ribosomal protein S6 kinase alpha-6 (Homo sapiens) (UniProt Q9UK32); details: Compound concentration 1000.0 nM
[31] = biological target: Mast/stem cell growth factor receptor Kit (Homo sapiens) (UniProt P10721); details: Compound concentration 1000.0 nM
[32] = biological target: Aurora kinase C (Homo sapiens) (UniProt Q9UQB9); details: Compound concentration 1000.0 nM
[33] = biological target: Mitogen-activated protein kinase kinase kinase kinase 5 (Homo sapiens) (UniProt Q9Y4K4); details: Compound concentration 1000.0 nM
[34] = system: Mast/stem cell growth factor receptor Kit (Homo sapiens), P10721 [V559D]; details: Compound concentration 1000.0 nM
[35] = biological target: Alpha-1D adrenergic receptor (Homo sapiens) (UniProt P25100); details: Compound concentration 10.0 uM
[36] = biological target: 5-hydroxytryptamine receptor 6 (Homo sapiens) (UniProt P50406); details: Compound concentration 10.0 uM
[37] = biological target: Receptor-interacting serine/threonine-protein kinase 4 (Homo sapiens) (UniProt P57078); details: Compound concentration 1000.0 nM
[38] = biological target: T1, Alpha-1A adrenergic receptor (Homo sapiens) (UniProt P35348); details: Compound concentration 10.0 uM
T1 sequence (whole entry): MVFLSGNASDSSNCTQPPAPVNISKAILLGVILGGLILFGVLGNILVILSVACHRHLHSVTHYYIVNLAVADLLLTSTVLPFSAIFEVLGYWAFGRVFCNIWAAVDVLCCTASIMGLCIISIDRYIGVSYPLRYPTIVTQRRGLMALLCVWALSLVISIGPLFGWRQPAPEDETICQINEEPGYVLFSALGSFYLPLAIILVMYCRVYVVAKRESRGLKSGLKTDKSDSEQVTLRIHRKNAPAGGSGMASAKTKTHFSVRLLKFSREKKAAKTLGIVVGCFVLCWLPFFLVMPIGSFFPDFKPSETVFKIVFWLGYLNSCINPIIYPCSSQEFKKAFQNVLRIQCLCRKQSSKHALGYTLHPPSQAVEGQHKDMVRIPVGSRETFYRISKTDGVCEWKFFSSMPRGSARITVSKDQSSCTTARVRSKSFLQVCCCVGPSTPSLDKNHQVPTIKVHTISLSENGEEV

[39] = biological target: Serine/threonine-protein kinase LATS2 (Homo sapiens) (UniProt Q9NRM7); details: Compound concentration 1000.0 nM

O=C(Nc1ccc(Oc2ccc(F)cc2)cc1)N1CCc2ncccc2[C@H]1c1ccc(F)cc1 [BAY-897]
inactive: residual activity [1] 85% | residual activity [2] 100% | residual activity [3] 86% | residual activity [4] 100% | residual activity [5] 88% | residual activity [6] 74% | inhibition [7] 32.5% | inhibition [8] -3.97% | residual activity [9] 94% | inhibition [10] 8.47% | residual activity [11] 94% | residual activity [12] 94% | residual activity [13] 94% | residual activity [14] 90% | residual activity [15] 96% | residual activity [16] 79% | residual activity [17] 91% | inhibition [18] 25.6% | residual activity [19] 94% | inhibition [20] 3.57% | residual activity [21] 99% | residual activity [22] 85% | residual activity [23] 82% | residual activity [24] 88% | residual activity [25] 100% | residual activity [26] 94% | residual activity [27] 91% | residual activity [28] 80% | residual activity [29] 93% | residual activity [30] 91% | residual activity [31] 97% | residual activity [32] 87% | residual activity [33] 91% | residual activity [34] 100% | inhibition [35] 34% | inhibition [36] 16.9% | residual activity [37] 84% | inhibition [38] 16.2% | residual activity [39] 100%

O=C(Nc1cnc(Oc2ccc(F)cc2)nc1)N1CCc2ncccc2[C@@H]1c1ccc(F)cc1 [BAY-899]
inactive: residual activity [1] 93% | residual activity [2] 94% | residual activity [3] 80% | residual activity [4] 100% | residual activity [5] 100% | residual activity [6] 74% | inhibition [7] 10.2% | inhibition [8] 1.65% | residual activity [9] 83% | inhibition [10] 8.55% | residual activity [11] 94% | residual activity [12] 100% | residual activity [13] 91% | residual activity [14] 88% | residual activity [15] 80% | residual activity [16] 75% | residual activity [17] 98% | inhibition [18] 25.3% | residual activity [19] 95% | inhibition [20] -8.41% | residual activity [21] 93% | residual activity [22] 77% | residual activity [23] 77% | residual activity [24] 97% | residual activity [25] 100% | residual activity [26] 79% | residual activity [27] 83% | residual activity [28] 87% | residual activity [29] 90% | residual activity [30] 100% | residual activity [31] 100% | residual activity [32] 81% | residual activity [33] 77% | residual activity [34] 100% | inhibition [35] 8.01% | inhibition [36] -3.59% | residual activity [37] 100% | inhibition [38] -3.5% | residual activity [39] 99%
